From paper PMC6992764 (Nature Communications, 2020)

Assays:
peritoneal macrophages = experiment: CCL2-induced pseudopodia protrusion of macrophages; format: cell-based, mice; conditions: 25 µM, 1 h pre-incubation
Description: Peritoneal macrophages were isolated from mice, seeded in the 8-well glass-based dishes (Life Technologies) and incubated overnight at 37 °C to allow the cells to adhere. After serum starvation for 6 h, cells were stimulated with chemokine at a concentration of 100 ng mL^–1, then fixed with 4% paraformaldehyde (Wako) and permeabilized with 0.1% Triton X-100 (Wako) in PBS, followed by staining with phalloidin conjugated with Alexa Fluor 594 (Life Technologies). […] Tumor macrophages were isolated from collagenase digestion of tumor tissue as attached cells by washing non-adherent cells away and further culturing them in DMEM containing 10 nM M-CSF (BD Biosciences) and 10% serum. After co-culture with LLC tumor cells, confocal images were obtained using an SP5 confocal microscope (Leica Microsystems). Cells were classified as lamellipodial/round-shaped or filopodial based on their morphology and the ratio of each type in the visual field determined.

[1] = system: LLC tumor cells co-cultured with monocytes; experiment: Tumor cell co-culture with monocytes/macrophages; format: cell-based, mice; conditions: nano-molar concentrations of DSF
Description: Monocytes were enriched from bone marrow cells by MACS negative selection for CD3, B220, Ly-6G, NK1.1, Ter119, CD49b, and c-kit. The percentage of Ly-6C^hi Ly-6G^− monocytes were >80%. Monocytes (1 × 10^5) and 100 DsRed^+ LLC tumor cells were co-cultured for 24 h. Proliferating tumor cell clusters containing more than 10 cells were enumerated by fluorescent microscopy. For flow cytometry analysis, cultured cells were harvested with trypsin-EDTA after 3 days of culture. Cells were stained with CD45-FITC (clone 102, BioLegend), then stained with annexin V-APC in binding buffer (BD biosciences). For detection of DNA synthesis, 5-ethynyl-2´-deoxyuridine (EdU) was added to the culture in the final hour of incubation. Intracellular EdU was stained using Click-iT® EdU Alexa Fluor™ 647 flow cytometry assay kits (Thermo Fisher Scientific) according to manufacturer’s instructions. Flow cytometry data were obtained by gating CD45(−) DsRed(+) cells and analyzing annexin V-positive cells or EdU-positive cells. Dead cells were excluded by Zombie Aqua staining (BioLegend). Stained cells were measured using Flow-Count™ Fluorospheres (Beckman Coulter) for the determination of absolute counts.

[2] = target: T1, Full-length FROUNT protein (Homo sapiens, UniProt Q9BW27); experiment: Surface plasmon resonance binding to FROUNT; conditions: SPR, concentration-dependent
T1 construct: made in house
T1 sequence (Q9BW27 1-656): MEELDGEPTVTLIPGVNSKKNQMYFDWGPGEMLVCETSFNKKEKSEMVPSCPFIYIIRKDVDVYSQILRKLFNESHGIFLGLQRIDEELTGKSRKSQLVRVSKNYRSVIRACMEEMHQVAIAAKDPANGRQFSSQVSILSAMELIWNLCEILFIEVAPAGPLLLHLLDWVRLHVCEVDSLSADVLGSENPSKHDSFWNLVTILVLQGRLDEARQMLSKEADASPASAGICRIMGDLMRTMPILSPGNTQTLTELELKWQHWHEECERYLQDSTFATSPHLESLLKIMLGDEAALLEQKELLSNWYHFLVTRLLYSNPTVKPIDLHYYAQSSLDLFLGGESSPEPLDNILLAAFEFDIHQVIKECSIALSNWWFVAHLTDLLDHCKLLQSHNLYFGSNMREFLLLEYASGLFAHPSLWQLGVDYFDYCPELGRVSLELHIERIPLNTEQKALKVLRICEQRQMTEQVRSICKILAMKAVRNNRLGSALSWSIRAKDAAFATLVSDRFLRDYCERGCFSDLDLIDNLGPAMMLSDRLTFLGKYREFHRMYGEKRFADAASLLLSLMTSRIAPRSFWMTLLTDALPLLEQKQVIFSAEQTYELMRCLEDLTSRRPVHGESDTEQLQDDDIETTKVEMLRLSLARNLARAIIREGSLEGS
Description: Interactions between FROUNT and library compounds were analyzed by surface plasmon resonance using a Biacore T100 (GE Healthcare). Full-length FROUNT protein or the FROUNT-binding region of CCR2 was immobilized on the CM5 sensor chip[56]. […] The resonance unit (RU) was measured during the binding and washing periods, and the binding kinetics were analyzed. Solvent correction with DMSO was performed using Biacore T100 evaluation software.

[3] = system: Lewis lung carcinoma (LLC); experiment: LLC lung metastasis model; format: in vivo, C57BL/6 mice; conditions: LLC i.v.; DSF 40 mg kg-1 i.p. daily
Description: For evaluating subcutaneous tumor growth, LLC or B16 cells (5 × 10^5) in 50 μl PBS were inoculated subcutaneously into the right flanks of mice. Mice were euthanized when their tumor volumes reached 4000 mm^3. Tumor sizes were measured twice a week using calipers. Tumor volume was calculated using the following formula: Volume = (width)^2 × length/2. For the lung metastasis model, 1 × 10^6 LLC or B16 cells in 200 μl PBS were injected intravenously into mice. Mice were euthanized at day 10 after tumor injection for the LLC model and day 5–9 for the B16 model, and the lungs were isolated after perfusion with PBS via the left ventricle. Visible lung metastases were counted in the left lobe. The diameters of metastatic nodules in the lung lobe image were measured using ImageJ software. […] Anti-PD-1 antibody (clone J43, BioXcell) was injected intraperitoneally at a dose of 200 μg per mouse on day 5, 8, 14, and 18 after tumor inoculation.

[4] = system: MMTV-PyVT spontaneous mammary tumor; experiment: MMTV-PyVT spontaneous mammary tumor model; format: in vivo, mice; conditions: treatment from age of 17 weeks
FROUNT-CCR2 interaction = target: T2, FROUNT-CCR2 interaction (Homo sapiens, UniProt Q9BW27); experiment: HTRF FROUNT-CCR2 interaction assay; format: binding
T2 construct: GST-fused FROUNT (FNT-C)
T2 sequence (Q9BW27 500-656 limits assumed): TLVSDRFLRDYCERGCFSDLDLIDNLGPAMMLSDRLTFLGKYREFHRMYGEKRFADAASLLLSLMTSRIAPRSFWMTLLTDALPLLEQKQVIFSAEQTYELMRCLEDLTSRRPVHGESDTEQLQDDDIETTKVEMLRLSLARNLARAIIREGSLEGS

THP-1 cells = experiment: Chemotaxis inhibition assay (chemoTX chamber, CCL2); format: cell-based, human; conditions: towards CCL2, 90 min
Description: Chemotaxis was measured in a 96-well chemoTX chemotaxis chamber with a polycarbonate filter (5-μm pore size) (Neuro probe). Human CCL2 (R&D Systems) was added to the lower chamber of the plate and the cells were added to the upper chamber. After incubation at 37 °C and 5% CO2 for 90 min, the filter was removed and the number of migrated cells in the lower chamber was counted using a cell counting kit F (Dojindo). Data are expressed as migration efficiency (percentage of the maximal migration).

FROUNT-CCR5 interaction = target: T3, FROUNT-CCR5 interaction (Homo sapiens, UniProt Q9BW27); experiment: HTRF FROUNT-CCR5 interaction assay; format: binding
T3 construct: GST-fused FROUNT (FNT-C)
T3 sequence (Q9BW27 500-656 limits assumed): T2 sequence (Q9BW27 500-656 limits assumed)

binding to FROUNT protein [2]: directly binds
inhibition of FROUNT-CCR2 interaction (FROUNT-CCR2 interaction; HTRF): specifically inhibited
IC50 (FROUNT-CCR2 interaction; HTRF titration assay): 42 nM
inhibition of FROUNT-CCR5 interaction (FROUNT-CCR5 interaction): specifically inhibited
Structure (SMILES): CCN(CC)C(=S)SSC(=S)N(CC)CC [DSF, disulfiram]
CCL2-induced pseudopodia protrusion (peritoneal macrophages): inhibited
tumor cell growth induced by co-culture with monocytes [1]: inhibited
lung metastatic nodule formation [3]: significantly reduced
growth of established tumors [4]: impaired
cellular chemotaxis (THP-1 cells): inhibited
